Reference: patent US20090176817A1, “Method of Treatment of Diarrhea-Predominant Irritable Bowel Syndrome in a Subject” (priority 2005, published 2009)

Tested on: diarrhea-predominant IBS subjects
Experiment: Study S241.3.006: weekly diary questions on adequate relief
Type: in vivo, human
Description: The study was conducted in 129 study centers in the United States. At total of 2080 subjects consented to participate, and 711 subjects were randomized. A total of 692 subjects were analyzed for efficacy and 701 subjects were analyzed for safety. Diagnosis and main criteria for inclusion were IBS subjects satisfying the Rome I criteria (1992); the diarrhea predominant sub-population of the Rome II criteria; and a minimum abdominal pain/discomfort, stool frequency and consistency determined during the run-in period. Subjects were treated with cilansetron 2 mg tablets given orally TID or matching placebo tablets given orally TID for 12 weeks double-blind treatment.
The primary efficacy parameter was the number of months that a subject was a responder for IBS symptoms (abdominal pain, abdominal discomfort, abnormal bowel habits) over the 12-week treatment period. A responder for a month (monthly responder) was defined as a subject who answered the weekly question with “yes” at least twice for that month.
Studies S24 1.3.OO6, S24 1.3.0 1 1, and S24 1.3.009 used the following efficacy measurements: • The subjects answered the following three questions with “yes” or “no” using a phone diary at the end of each week: • a) During the last week, did you experience adequate relief of your IBS symptoms, such as abdominal pain, abdominal discomfort, abnormal bowel habits? • b) During the last week, did you experience adequate relief of your abdominal pain and/or discomfort? • c) During the last week, did you experience adequate relief of your abnormal bowel habits? • The subjects rated the following symptoms using the phone diary at the end of each day: • abdominal pain/discomfort (five-point scale); • stool consistency (seven-point Bristol Stool Scale); • stool frequency (number of bowel movements each day); • urgency (five-point scale); • straining (yes or no); • feeling of incomplete defecation (yes or no); • bloating or feeling of abdominal distension (five-point scale). • In Studies S241 A006 and S241.3.009, subjects completed the IBS-QOL Survey at Baseline (Day 1) and at the end of treatment. In Study S24 1.3.0 1 1, subjects completed the IBS-QOL Survey at Baseline (Day 1), at the end of the three-month treatment period, and at the end of rerandomized treatment.
In all three pivotal efficacy studies, the primary and main secondary efficacy parameters were based on the weekly diary questions on adequate relief and included the following: • 1. Number of months (one month equals four weeks) that a subject was a responder for the weekly diary questions on adequate relief. A responder for a month (monthly responder) was defined as a subject who answered the weekly question with “yes” at least twice for that month. For Studies S241.3.006 and S241.3.011, the primary efficacy parameter was the number of months that a subject was a responder for IBS symptoms during the 12-week treatment period. The two main secondary efficacy parameters were the number of months that a subject was a responder for abdominal pain/discomfort and abnormal bowel habits during the 12-week treatment period. For Study S241.3.009, the number of months that a subject was a responder for the weekly diary questions on adequate relief during Months 1 to 3 (the first 12 weeks) and Months 1 to 6 (24-week) was an additional key secondary efficacy parameter. • 2. Overall responder rate for the weekly diary questions on adequate relief. A responder was defined as a subject who answered the weekly question with “yes” for at least half of the answers available with a minimum of four weeks treatment duration. If a subject had less than four weeks treatment duration, the subject was considered a non-responder. The overall responder rate was the percentage of responders within a treatment group. For Study S241.3.009, the primary efficacy parameter was the overall responder rate for IBS symptoms during the 26-week treatment period. […]

[1] = 2 mg TID, monthly LOCF, ITT N = 344
[2] = 2 mg TID, three-month treatment period, monthly LOCF, ITT N = 344
[3] = 2 mg TID, three-month treatment period, observed case, ITT N = 344
[4] = Baseline BMI: <30 kg/m^2, three-month treatment period, monthly LOCF, ITT, 2 mg TID
[5] = Baseline BMI: ≧30 kg/m^2, three-month treatment period, monthly LOCF, ITT, 2 mg TID
[6] = Baseline severity of IBS: non-severe, three-month treatment period, monthly LOCF, ITT, 2 mg TID
[7] = Baseline severity of IBS: non-severe, three-month treatment period, observed case, ITT, 2 mg TID
[8] = Baseline severity of IBS: severe, three-month treatment period, monthly LOCF, ITT, 2 mg TID
[9] = Baseline severity of IBS: severe, three-month treatment period, observed case, ITT, 2 mg TID

## Cc1nccn1C[C@H]1CCc2c(c3cccc4c3n2CCC4)C1=O [Cilansetron, (R)-(−)-4,5,6,8,9,10-hexahydro-10-[(2-methyl-1H-imidazol-1-yl)methyl]-11H-pyrido-[3,2,1-jk]-carbazol-11-one]
2 mg TID, 3 months
  Responders for one month, IBS symptoms: 13%
  Responders for one month, abdominal pain/discomfort: 12%
  Responders for one month, abnormal bowel habits: 12%
  Responders for three months, IBS symptoms: 35%
  Responders for three months, abdominal pain/discomfort: 40%
  Responders for three months, abnormal bowel habits: 38%
  Responders for two months, IBS symptoms: 15%
  Responders for two months, abdominal pain/discomfort: 14%
  Responders for two months, abnormal bowel habits: 15%
  Responders for zero months, IBS symptoms: 37%
  Responders for zero months, abdominal pain/discomfort: 34%
  Responders for zero months, abnormal bowel habits: 36%
[1]
  Responder rate, adequate relief of IBS symptoms, Each month of Months 1 to 3: 119 (35) n (%)
  Responder rate, adequate relief of IBS symptoms, Month 1: 176 (51) n (%)
  Responder rate, adequate relief of IBS symptoms, Month 2: 163 (47) n (%)
  Responder rate, adequate relief of IBS symptoms, Month 3: 169 (49) n (%)
  Responder rate, adequate relief of abdominal pain/discomfort, Each month of Months 1 to 3: 139 (40) n (%)
  Responder rate, adequate relief of abdominal pain/discomfort, Month 1: 192 (56) n (%)
  Responder rate, adequate relief of abdominal pain/discomfort, Month 2: 178 (52) n (%)
  Responder rate, adequate relief of abdominal pain/discomfort, Month 3: 183 (53) n (%)
  Responder rate, adequate relief of abnormal bowel habits, Each month of Months 1 to 3: 129 (38) n (%)
  Responder rate, adequate relief of abnormal bowel habits, Month 1: 180 (52) n (%)
  Responder rate, adequate relief of abnormal bowel habits, Month 2: 178 (52) n (%)
  Responder rate, adequate relief of abnormal bowel habits, Month 3: 173 (50) n (%)
[2]
  Subjects who were responders for One month, adequate relief of IBS symptoms: 45 (13) n (%)
  Subjects who were responders for One month, adequate relief of abdominal pain/discomfort: 42 (12) n (%)
  Subjects who were responders for One month, adequate relief of abnormal bowel habits: 40 (12) n (%)
  Subjects who were responders for Three months, adequate relief of IBS symptoms: 119 (35) n (%)
  Subjects who were responders for Three months, adequate relief of abdominal pain/discomfort: 139 (40) n (%)
  Subjects who were responders for Three months, adequate relief of abnormal bowel habits: 129 (38) n (%)
  Subjects who were responders for Two months, adequate relief of IBS symptoms: 53 (15) n (%)
  Subjects who were responders for Two months, adequate relief of abdominal pain/discomfort: 47 (14) n (%)
  Subjects who were responders for Two months, adequate relief of abnormal bowel habits: 52 (15) n (%)
  Subjects who were responders for Zero months, adequate relief of IBS symptoms: 127 (37) n (%)
  Subjects who were responders for Zero months, adequate relief of abdominal pain/discomfort: 116 (34) n (%)
  Subjects who were responders for Zero months, adequate relief of abnormal bowel habits: 123 (36) n (%)
[3]
  Overall responder rate, adequate relief of IBS symptoms: 168 (49) n (%)
  Overall responder rate, adequate relief of abdominal pain/discomfort: 179 (52) n (%)
  Overall responder rate, adequate relief of abnormal bowel habits: 174 (51) n (%)
3 months
  Median adequate relief rate, IBS symptoms: 0.50
  Median adequate relief rate, abdominal pain/discomfort: 0.58
  Median adequate relief rate, abnormal bowel habits: 0.50
3 months, observed case, ITT
  Overall responder rate, IBS symptoms: 49%
  Overall responder rate, abdominal pain/discomfort: 52%
  Overall responder rate, abnormal bowel habits: 51%
[4]
  Number of months a subject was a responder: One month (Abdominal pain/discomfort): 26 (11) n (%)
  Number of months a subject was a responder: One month (Abnormal bowel habits): 27 (12) n (%)
  Number of months a subject was a responder: One month (IBS symptoms): 29 (13) n (%)
  Number of months a subject was a responder: Three months (Abdominal pain/discomfort): 96 (42) n (%)
  Number of months a subject was a responder: Three months (Abnormal bowel habits): 83 (36) n (%)
  Number of months a subject was a responder: Three months (IBS symptoms): 80 (35) n (%)
  Number of months a subject was a responder: Two months (Abdominal pain/discomfort): 29 (13) n (%)
  Number of months a subject was a responder: Two months (Abnormal bowel habits): 37 (16) n (%)
  Number of months a subject was a responder: Two months (IBS symptoms): 35 (15) n (%)
  Number of months a subject was a responder: Zero months (Abdominal pain/discomfort): 79 (34) n (%)
  Number of months a subject was a responder: Zero months (Abnormal bowel habits): 83 (36) n (%)
  Number of months a subject was a responder: Zero months (IBS symptoms): 86 (37) n (%)
[5]
  Number of months a subject was a responder: One month (Abdominal pain/discomfort): 16 (14) n (%)
  Number of months a subject was a responder: One month (Abnormal bowel habits): 13 (11) n (%)
  Number of months a subject was a responder: One month (IBS symptoms): 16 (14) n (%)
  Number of months a subject was a responder: Three months (Abdominal pain/discomfort): 43 (38) n (%)
  Number of months a subject was a responder: Three months (Abnormal bowel habits): 46 (40) n (%)
  Number of months a subject was a responder: Three months (IBS symptoms): 39 (34) n (%)
  Number of months a subject was a responder: Two months (Abdominal pain/discomfort): 18 (16) n (%)
  Number of months a subject was a responder: Two months (Abnormal bowel habits): 15 (13) n (%)
  Number of months a subject was a responder: Two months (IBS symptoms): 18 (16) n (%)
  Number of months a subject was a responder: Zero months (Abdominal pain/discomfort): 37 (32) n (%)
  Number of months a subject was a responder: Zero months (Abnormal bowel habits): 40 (35) n (%)
  Number of months a subject was a responder: Zero months (IBS symptoms): 41 (36) n (%)
[6]
  Number of months a subject was a responder: One month (Abdominal pain/discomfort): 9 (6) n (%)
  Number of months a subject was a responder: One month (Abnormal bowel habits): 16 (11) n (%)
  Number of months a subject was a responder: One month (IBS symptoms): 18 (12) n (%)
  Number of months a subject was a responder: Three months (Abdominal pain/discomfort): 72 (49) n (%)
  Number of months a subject was a responder: Three months (Abnormal bowel habits): 68 (46) n (%)
  Number of months a subject was a responder: Three months (IBS symptoms): 60 (41) n (%)
  Number of months a subject was a responder: Two months (Abdominal pain/discomfort): 25 (17) n (%)
  Number of months a subject was a responder: Two months (Abnormal bowel habits): 22 (15) n (%)
  Number of months a subject was a responder: Two months (IBS symptoms): 24 (16) n (%)
  Number of months a subject was a responder: Zero months (Abdominal pain/discomfort): 42 (28) n (%)
  Number of months a subject was a responder: Zero months (Abnormal bowel habits): 42 (28) n (%)
  Number of months a subject was a responder: Zero months (IBS symptoms): 46 (31) n (%)
[7]
  Overall responder rate, adequate relief of IBS symptoms: 81 (55) n (%)
  Overall responder rate, adequate relief of abdominal pain/discomfort: 89 (60) n (%)
  Overall responder rate, adequate relief of abnormal bowel habits: 84 (57) n (%)
[8]
  Number of months a subject was a responder: One month (Abdominal pain/discomfort): 33 (17) n (%)
  Number of months a subject was a responder: One month (Abnormal bowel habits): 24 (12) n (%)
  Number of months a subject was a responder: One month (IBS symptoms): 27 (14) n (%)
  Number of months a subject was a responder: Three months (Abdominal pain/discomfort): 67 (34) n (%)
  Number of months a subject was a responder: Three months (Abnormal bowel habits): 61 (31) n (%)
  Number of months a subject was a responder: Three months (IBS symptoms): 59 (30) n (%)
  Number of months a subject was a responder: Two months (Abdominal pain/discomfort): 22 (11) n (%)
  Number of months a subject was a responder: Two months (Abnormal bowel habits): 30 (15) n (%)
  Number of months a subject was a responder: Two months (IBS symptoms): 29 (15) n (%)
  Number of months a subject was a responder: Zero months (Abdominal pain/discomfort): 74 (38) n (%)
  Number of months a subject was a responder: Zero months (Abnormal bowel habits): 81 (41) n (%)
  Number of months a subject was a responder: Zero months (IBS symptoms): 81 (41) n (%)
[9]
  Overall responder rate, adequate relief of IBS symptoms: 87 (44) n (%)
  Overall responder rate, adequate relief of abdominal pain/discomfort: 90 (46) n (%)
